Reference: the Kinase Knowledgebase extract (Sharma et al. 2016)

The compounds below were run against EGFR (Human), P00533 [T790M/L858R].
Sequence of EGFR (Human), P00533 [T790M/L858R] (P00533 whole entry T790M/L858R, looked up): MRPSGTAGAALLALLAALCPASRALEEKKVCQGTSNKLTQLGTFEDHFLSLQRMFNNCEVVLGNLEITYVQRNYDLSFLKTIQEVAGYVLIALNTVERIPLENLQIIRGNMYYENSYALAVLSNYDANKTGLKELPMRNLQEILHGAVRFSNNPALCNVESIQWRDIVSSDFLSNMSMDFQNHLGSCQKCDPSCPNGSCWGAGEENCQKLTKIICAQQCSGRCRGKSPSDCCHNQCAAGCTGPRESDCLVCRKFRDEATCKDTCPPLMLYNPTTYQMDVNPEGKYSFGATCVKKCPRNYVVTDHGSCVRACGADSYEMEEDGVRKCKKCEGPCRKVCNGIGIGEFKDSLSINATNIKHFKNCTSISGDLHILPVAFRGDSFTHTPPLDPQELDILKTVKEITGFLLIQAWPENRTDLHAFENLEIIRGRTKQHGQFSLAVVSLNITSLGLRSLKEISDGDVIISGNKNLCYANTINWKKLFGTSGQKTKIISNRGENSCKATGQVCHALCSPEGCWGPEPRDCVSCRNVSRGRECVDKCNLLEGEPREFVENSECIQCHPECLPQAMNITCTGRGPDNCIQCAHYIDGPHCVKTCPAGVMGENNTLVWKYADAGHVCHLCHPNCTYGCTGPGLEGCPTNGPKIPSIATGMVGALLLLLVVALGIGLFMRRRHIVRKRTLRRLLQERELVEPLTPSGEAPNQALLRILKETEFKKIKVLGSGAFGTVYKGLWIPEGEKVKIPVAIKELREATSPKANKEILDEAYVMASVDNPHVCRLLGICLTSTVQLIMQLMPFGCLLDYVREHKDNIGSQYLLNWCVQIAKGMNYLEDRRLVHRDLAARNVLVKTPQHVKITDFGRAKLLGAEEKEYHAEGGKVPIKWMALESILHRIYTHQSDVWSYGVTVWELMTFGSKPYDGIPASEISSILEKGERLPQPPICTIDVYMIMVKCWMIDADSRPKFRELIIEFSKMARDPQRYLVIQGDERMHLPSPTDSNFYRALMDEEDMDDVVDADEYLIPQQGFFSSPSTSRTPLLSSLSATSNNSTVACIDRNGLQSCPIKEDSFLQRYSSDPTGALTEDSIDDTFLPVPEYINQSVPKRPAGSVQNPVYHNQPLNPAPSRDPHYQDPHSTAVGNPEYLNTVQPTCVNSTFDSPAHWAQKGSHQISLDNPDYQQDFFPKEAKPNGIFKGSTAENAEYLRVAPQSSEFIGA

IC50 | Compound
≤ 0.01 µM | O=C(C=CCN1CCCC1)Nc1cccc(Nc2cc(Nc3ccc(F)c(Cl)c3)ncn2)c1
≤ 0.01 µM | CN(C)C/C=C/C(=O)Nc1cccc(Nc2cc(Nc3ccc(F)c(Cl)c3)ncn2)n1

What follows are compounds tested against EGFR (human), P00533 [WT].
Sequence of EGFR (human), P00533 [WT] (P00533 whole entry, looked up): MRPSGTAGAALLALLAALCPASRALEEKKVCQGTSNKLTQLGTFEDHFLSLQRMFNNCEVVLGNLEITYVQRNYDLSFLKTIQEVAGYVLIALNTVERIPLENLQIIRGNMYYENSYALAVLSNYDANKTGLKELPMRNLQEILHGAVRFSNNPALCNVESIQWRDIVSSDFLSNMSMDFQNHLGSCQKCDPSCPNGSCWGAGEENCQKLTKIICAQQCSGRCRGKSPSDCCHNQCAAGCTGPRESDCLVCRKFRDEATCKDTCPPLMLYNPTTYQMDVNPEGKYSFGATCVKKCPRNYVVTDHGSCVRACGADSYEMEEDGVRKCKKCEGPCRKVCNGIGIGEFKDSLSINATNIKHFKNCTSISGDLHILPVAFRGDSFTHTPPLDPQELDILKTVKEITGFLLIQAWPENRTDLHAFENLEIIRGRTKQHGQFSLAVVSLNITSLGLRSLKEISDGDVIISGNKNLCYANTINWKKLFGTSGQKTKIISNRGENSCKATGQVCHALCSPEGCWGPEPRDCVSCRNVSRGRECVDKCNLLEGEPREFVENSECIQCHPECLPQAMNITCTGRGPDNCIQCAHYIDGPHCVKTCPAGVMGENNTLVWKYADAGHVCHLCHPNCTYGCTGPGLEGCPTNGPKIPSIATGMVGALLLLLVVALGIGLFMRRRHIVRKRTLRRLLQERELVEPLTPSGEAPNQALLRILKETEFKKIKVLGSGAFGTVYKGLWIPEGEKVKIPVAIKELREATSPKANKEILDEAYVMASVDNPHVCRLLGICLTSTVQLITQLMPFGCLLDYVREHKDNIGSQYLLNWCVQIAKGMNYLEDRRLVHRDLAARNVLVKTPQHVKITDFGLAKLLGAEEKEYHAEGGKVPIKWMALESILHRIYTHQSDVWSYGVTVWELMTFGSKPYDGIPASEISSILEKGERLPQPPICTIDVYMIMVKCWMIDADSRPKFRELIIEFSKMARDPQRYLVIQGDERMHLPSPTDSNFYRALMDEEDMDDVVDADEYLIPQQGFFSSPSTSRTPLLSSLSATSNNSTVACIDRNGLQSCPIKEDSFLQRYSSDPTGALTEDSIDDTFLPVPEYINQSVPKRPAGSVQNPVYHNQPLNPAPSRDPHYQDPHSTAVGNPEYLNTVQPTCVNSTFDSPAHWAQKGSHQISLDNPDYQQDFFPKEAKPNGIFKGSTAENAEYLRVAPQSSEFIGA

Compound | IC50
C=CC(=O)Nc1cccc(Nc2cc(N(C)c3ccccc3)ncn2)c1 | ≤ 0.01 µM
C/C=C/C(=O)Nc1cccc(Nc2cc(Nc3cccc(Br)c3)ncn2)c1 | ≤ 0.01 µM
C=CC(=O)Nc1cccc(Nc2cc(Nc3cccc(Oc4ccccc4)c3)ncn2)c1 | ≤ 0.01 µM
C=CC(=O)Nc1cccc(Nc2cc(Oc3cccc(C(F)(F)F)c3)ncn2)c1 | ≤ 0.01 µM
COc1ccc(NC(=O)/C=C/CN(C)C)cc1Nc1cc(Nc2ccc(F)c(Cl)c2)ncn1 | ≤ 0.01 µM
C=CC(=O)Nc1cccc(Nc2cc(Nc3ccc(Oc4ccccc4)cc3)ncn2)c1 | ≤ 0.01 µM
CC#CC(=O)c1cccc(Nc2cc(Nc3ccc(Oc4ccccc4)cc3)ncn2)c1 | ≤ 0.01 µM
C=CC(=O)Nc1cccc(Nc2cc(Nc3ccccc3)ncn2)n1 | ≤ 0.01 µM
Cc1cccc(Nc2cc(Nc3cccc(NC(=O)/C=C/CN(C)C)c3)ncn2)c1 | ≤ 0.01 µM
C=CC(=O)Nc1cccc(Nc2cc(Oc3ccc(OC)cc3)ncn2)n1 | ≤ 0.01 µM
C=CS(=O)(=O)Nc1cccc(Nc2cc(Nc3ccc(F)c(Cl)c3)ncn2)c1 | ≤ 0.01 µM
C#Cc1cccc(Nc2cc(Nc3cccc(NC(=O)C=C)c3)ncn2)c1 | ≤ 0.01 µM
CN(C)C/C=C/C(=O)Nc1cccc(Nc2cc(Nc3ccc(OCc4cccc(F)c4)c(Cl)c3)ncn2)c1 | ≤ 0.01 µM
C=CC(=O)Nc1cccc(Nc2cc(Oc3ccc(Oc4ccccc4)cc3)ncn2)n1 | ≤ 0.01 µM
C=CS(=O)(=O)Nc1cccc(Nc2cc(Nc3cccc(C)c3)ncn2)c1 | ≤ 0.01 µM
CN(C)C/C=C/C(=O)Nc1cccc(Nc2cc(Nc3ccc(F)c(Cl)c3)ncn2)c1 | ≤ 0.01 µM
N#CC1(C(=O)Nc2cccc(Nc3cc(Nc4ccc(F)c(Cl)c4)ncn3)c2)CC1 | ≤ 0.01 µM
C=CC(=O)Nc1cccc(Nc2cc(N3CCc4ccccc43)ncn2)c1 | ≤ 0.01 µM
C=CC(=O)Nc1cccc(Nc2cc(Nc3ccccc3)ncn2)c1 | ≤ 0.01 µM
C=CC(=O)Nc1ccc(Nc2cc(Nc3cccc(Br)c3)ncn2)cc1 | ≤ 0.01 µM
C=CC(=O)Nc1cccc(Nc2cc(Nc3ccc(F)c(Cl)c3)ncn2)c1 | ≤ 0.01 µM
C=CC(=O)Nc1cccc(Nc2cc(Nc3ccc(Br)cc3F)ncn2)c1 | ≤ 0.01 µM
O=C(Nc1cccc(Nc2cc(Nc3ccc(F)c(Cl)c3)ncn2)c1)C1(C(F)(F)F)CC1 | ≤ 0.01 µM
CN(C)C/C=C/C(=O)Nc1cccc(Nc2cc(Nc3ccccc3)ncn2)n1 | ≤ 0.01 µM
CN(C)C/C=C/C(=O)Nc1cccc(Nc2cc(Oc3ccc(F)c(Cl)c3)ncn2)c1 | ≤ 0.01 µM
C=CC(=O)Nc1cccc(Nc2cc(Oc3cccc(C)c3)ncn2)n1 | ≤ 0.01 µM
C=CC(=O)N(C)c1cccc(Nc2cc(Nc3ccc(Oc4ccccc4)cc3)ncn2)n1 | ≤ 0.01 µM
C=CC(=O)N1CCCC(Nc2cc(Nc3ccc(F)c(Cl)c3)ncn2)C1 (stereo not drawn) | ≤ 0.01 µM

Second part, the compound after the results:

IC50 | Compound
≤ 0.01 µM | O=C(CCl)Nc1cccc(Nc2cc(Nc3ccc(F)c(Cl)c3)ncn2)c1
≤ 0.01 µM | C=CC(=O)Nc1cccc(Nc2cc(Nc3ccc(Oc4ccccc4)cc3)ncn2)n1
≤ 0.01 µM | C=CC(=O)Nc1cccc(Nc2cc(Oc3cccc(OC)c3)ncn2)n1
≤ 0.01 µM | O=C(C=CCN1CCCC1)Nc1cccc(Nc2cc(Nc3ccc(F)c(Cl)c3)ncn2)c1
≤ 0.01 µM | Cc1ccc(NC(=O)/C=C/CN(C)C)cc1Nc1cc(Nc2ccc(F)c(Cl)c2)ncn1
≤ 0.01 µM | C=CS(=O)(=O)Nc1cccc(Nc2cc(Nc3ccc(OCc4cccc(F)c4)c(Cl)c3)ncn2)c1
≤ 0.01 µM | CN(C)C/C=C/C(=O)Nc1cccc(Nc2cc(Oc3ccc(Oc4ccccc4)cc3)ncn2)n1
≤ 0.01 µM | CN(C)C/C=C/C(=O)Nc1cccc(Nc2cc(Nc3ccc(F)c(Cl)c3)ncn2)n1
≤ 0.01 µM | CC=CC(=O)c1cccc(Nc2cc(Nc3ccc(Oc4ccccc4)cc3)ncn2)c1
≤ 0.01 µM | Cc1cccc(Oc2cc(Nc3cccc(NC(=O)C=CCN(C)C)n3)ncn2)c1
≤ 0.01 µM | CN(C)C/C=C/C(=O)Nc1cccc(Nc2cc(Nc3ccc(OCc4ccccn4)c(Cl)c3)ncn2)c1
≤ 0.01 µM | C=CC(=O)N1CCC(Nc2cc(Nc3ccc(F)c(Cl)c3)ncn2)C1 (stereo not drawn)
≤ 0.01 µM | C=CC(=O)Nc1cccc(Nc2cc(Nc3ccc(OCc4ccccn4)c(Cl)c3)ncn2)c1
≤ 0.01 µM | CN(C)C/C=C/C(=O)N(C)c1cccc(Nc2cc(Nc3ccc(Oc4ccccc4)cc3)ncn2)n1
≤ 0.01 µM | C=CC(=O)Nc1cccc(Nc2cc(Nc3cccc(C)c3)ncn2)c1
≤ 0.01 µM | CC(Cl)C(=O)Nc1cccc(Nc2cc(Nc3ccc(F)c(Cl)c3)ncn2)c1 (stereo not drawn)
≤ 0.01 µM | C=CC(=O)Nc1cccc(Nc2cc(Nc3cccc(Br)c3)ncn2)c1
≤ 0.01 µM | C=CS(=O)(=O)Nc1cccc(Nc2cc(Oc3cccc(C(F)(F)F)c3)ncn2)c1
